Results: PMC12454493, “Insight on novel sulfamoylphenyl pyrazole derivatives as anticancer carbonic anhydrase inhibitors” (Molecular Diversity, 2024)

Columns and labels:
Assay type in all cases: cell-based
PC-3 = test: NCI-60 one-dose SRB screen (Prostate Cancer); details: Homo sapiens, single dose 10 µM, 48 h, read-out: Growth inhibition percent (GI %)
Procedure: (§1) The National Cancer Institute (NCI) Developmental Therapeutic Program (www.dtp.nci.nih.gov) selected the 20 novel synthesized compounds 4a-e, 5a-e, 6a-c, 9a-e, 10 and 11 to test for their anticancer activity at a single dose of 10 µM using SRB assay. […] Supplementary Data S3; Table S1 presents the detailed screening results of the most promising compounds. The preliminary screening’s detailed results for the remaining compounds are elucidated in the (Supplementary Data S3; Table S2).
(§2) The guidelines of the Drug Evaluation Branch’s protocol at the NCI in Bethesda served as the basis for the in vitro anticancer screening assays. at one dose 10 µM against a panel of 60 cancer cell lines. The human tumor cell lines used belonged to nine panels: leukemia, melanoma, lung, colon, CNS, ovarian, renal, prostate and breast cancers using the sulforhodamine B (SRB) assay in a 48 h drug exposure protocol.

DU-145 = test: NCI-60 one-dose SRB screen (Prostate Cancer); details: Homo sapiens, single dose 10 µM, 48 h, read-out: Growth inhibition percent (GI %)
Procedure: as §1, §2

K-562 = test: NCI-60 one-dose SRB screen (Leukemia); details: Homo sapiens, K562, single dose 10 µM, 48 h, read-out: Growth inhibition percent (GI %)
Procedure: as §1, §2

SR = test: NCI-60 one-dose SRB screen (Leukemia); details: Homo sapiens, single dose 10 µM, 48 h, read-out: Growth inhibition percent (GI %)
Procedure: as §1, §2

MOLT-4 = test: NCI-60 one-dose SRB screen (Leukemia); details: Homo sapiens, single dose 10 µM, 48 h, read-out: Growth inhibition percent (GI %)
Procedure: as §1, §2

CCRF-CEM = test: NCI-60 one-dose SRB screen (Leukemia); details: Homo sapiens, single dose 10 µM, 48 h, read-out: Growth inhibition percent (GI %)
Procedure: as §1, §2

HL-60(TB) = test: NCI-60 one-dose SRB screen (Leukemia); details: Homo sapiens, single dose 10 µM, 48 h, read-out: Growth inhibition percent (GI %)
Procedure: as §1, §2

RPMI-8226 = test: NCI-60 one-dose SRB screen (Leukemia); details: Homo sapiens, single dose 10 µM, 48 h, read-out: Growth inhibition percent (GI %)
Procedure: as §1, §2

HOP-92 = test: NCI-60 one-dose SRB screen (Non-Small Cell Lung Cancer); details: Homo sapiens, single dose 10 µM, 48 h, read-out: Growth inhibition percent (GI %)
Procedure: as §1, §2

A549/ATCC = test: as above; details: Homo sapiens, single dose 10 µM, 48 h, read-out: Growth inhibition percent (GI %)
Procedure: as §1, §2

NCI-H522 = test: as above; details: Homo sapiens, single dose 10 µM, 48 h, read-out: Growth inhibition percent (GI %)
Procedure: as §1, §2

HOP-62 = test: as above; details: Homo sapiens, single dose 10 µM, 48 h, read-out: Growth inhibition percent (GI %)
Procedure: as §1, §2

NCI-H226 = test: as above; details: Homo sapiens, single dose 10 µM, 48 h, read-out: Growth inhibition percent (GI %)
Procedure: as §1, §2

NCI-H460 = test: as above; details: Homo sapiens, single dose 10 µM, 48 h, read-out: Growth inhibition percent (GI %)
Procedure: as §1, §2

NCI-H23 = test: as above; details: Homo sapiens, single dose 10 µM, 48 h, read-out: Growth inhibition percent (GI %)
Procedure: as §1, §2

EKVX = test: as above; details: Homo sapiens, single dose 10 µM, 48 h, read-out: Growth inhibition percent (GI %)
Procedure: as §1, §2

NCI-H322M = test: as above; details: Homo sapiens, single dose 10 µM, 48 h, read-out: Growth inhibition percent (GI %)
Procedure: as §1, §2

MALME-3M = test: NCI-60 one-dose SRB screen (Melanoma); details: Homo sapiens, single dose 10 µM, 48 h, read-out: Growth inhibition percent (GI %)
Procedure: as §1, §2

SK-MEL-5 = test: NCI-60 one-dose SRB screen (Melanoma); details: Homo sapiens, single dose 10 µM, 48 h, read-out: Growth inhibition percent (GI %)
Procedure: as §1, §2

LOX IMVI = test: NCI-60 one-dose SRB screen (Melanoma); details: Homo sapiens, single dose 10 µM, 48 h, read-out: Growth inhibition percent (GI %)
Procedure: as §1, §2

M14 = test: NCI-60 one-dose SRB screen (Melanoma); details: Homo sapiens, single dose 10 µM, 48 h, read-out: Growth inhibition percent (GI %)
Procedure: as §1, §2

SK-MEL-28 = test: NCI-60 one-dose SRB screen (Melanoma); details: Homo sapiens, single dose 10 µM, 48 h, read-out: Growth inhibition percent (GI %)
Procedure: as §1, §2

UACC-62 = test: NCI-60 one-dose SRB screen (Melanoma); details: Homo sapiens, single dose 10 µM, 48 h, read-out: Growth inhibition percent (GI %)
Procedure: as §1, §2

MDA-MB-435 = test: NCI-60 one-dose SRB screen (Melanoma); details: Homo sapiens, single dose 10 µM, 48 h, read-out: Growth inhibition percent (GI %)
Procedure: as §1, §2

SK-MEL-2 = test: NCI-60 one-dose SRB screen (Melanoma); details: Homo sapiens, single dose 10 µM, 48 h, read-out: Growth inhibition percent (GI %)
Procedure: as §1, §2

UACC-257 = test: NCI-60 one-dose SRB screen (Melanoma); details: Homo sapiens, single dose 10 µM, 48 h, read-out: Growth inhibition percent (GI %)
Procedure: as §1, §2

786-0 = test: NCI-60 one-dose SRB screen (Renal Cancer); details: Homo sapiens, single dose 10 µM, 48 h, read-out: Growth inhibition percent (GI %)
Procedure: as §1, §2

TK-10 = test: NCI-60 one-dose SRB screen (Renal Cancer); details: Homo sapiens, single dose 10 µM, 48 h, read-out: Growth inhibition percent (GI %)
Procedure: as §1, §2

CAKI-1 = test: NCI-60 one-dose SRB screen (Renal Cancer); details: Homo sapiens, single dose 10 µM, 48 h, read-out: Growth inhibition percent (GI %)
Procedure: as §1, §2

ACHN = test: NCI-60 one-dose SRB screen (Renal Cancer); details: Homo sapiens, single dose 10 µM, 48 h, read-out: Growth inhibition percent (GI %)
Procedure: as §1, §2

CCOC(=O)c1ccc(NC(=O)COC(=O)c2cn(-c3ccc(S(N)(=O)=O)cc3)nc2-c2ccccc2)cc1 [Compound 5a, 2-[(4-(Ethoxycarbonyl)phenyl)amino]-2-oxoethyl 3-phenyl-1-(4-sulfamoylphenyl)-1H-pyrazole-4-carboxylate]
inhibition at 10 µM (PC-3): 68.1% | inhibition at 10 µM (DU-145): 29.1% | inhibition at 10 µM (K-562): 78.7% | inhibition at 10 µM (SR): 82.1% | inhibition at 10 µM (MOLT-4): 89% | inhibition at 10 µM (CCRF-CEM): 82% | inhibition at 10 µM (HL-60(TB)): 92.1% | inhibition at 10 µM (RPMI-8226): 86.8% | inhibition at 10 µM (HOP-92): 38.2% | inhibition at 10 µM (A549/ATCC): 60.3% | inhibition at 10 µM (NCI-H522): 76.8% | inhibition at 10 µM (HOP-62): 19.3% | inhibition at 10 µM (NCI-H226): 54.7% | inhibition at 10 µM (NCI-H460): 63.5% | inhibition at 10 µM (NCI-H23): 51.7% | inhibition at 10 µM (EKVX): 49% | inhibition at 10 µM (NCI-H322M): 32.4% | inhibition at 10 µM (MALME-3M): 79.1% | inhibition at 10 µM (SK-MEL-5): 70.1% | inhibition at 10 µM (LOX IMVI): 69.2% | inhibition at 10 µM (M14): 63.5% | inhibition at 10 µM (SK-MEL-28): 54.5% | inhibition at 10 µM (UACC-62): 55.2% | inhibition at 10 µM (MDA-MB-435): 45.1% | inhibition at 10 µM (SK-MEL-2): 50.8% | inhibition at 10 µM (UACC-257): 48% | inhibition at 10 µM (786-0): 66.9% | inhibition at 10 µM (TK-10): 40.1% | inhibition at 10 µM (CAKI-1): 61.6% | inhibition at 10 µM (ACHN): 76.1%
